The values below are quoted from earlier work in patent publication US6440395B1, “Antiplaque mouth rinse” (priority 1992, dated 2002).

Regarding `CCCCCCCCCCCCCCCC[n+]1ccccc1` [CPC, cetyl pyridinium chloride], the “solubility in water and alcohol” value (water and alcohol, stated in words) is “highly soluble”.

For `Oc1cc(Cl)ccc1Oc1ccc(Cl)cc1Cl` [Triclosan, 2,4,4′-trichloro-2′-hydroxydiphenyl ether], under “in water at 25° C.”, the solubility in water result is recorded as “less than 1 % by weight”.
